# Laboratory results reported in EP3748362A1, “IN VITRO METHOD FOR DETECTING RENAL DISEASE” (Fundacion Instituto De Investigacion Sanitaria Fundacion …, priority 2019, dated 2020).
# “Also recorded” adds a separate entry of the source.
# Assays:
# [1] = Renal function (serum BUN), folic acid-induced renal injury in mice; type: in vivo; settings: folic acid 300 mg/kg model; paricalcitol 25 µg/kg/day i.p.
# Procedure: (§1) All animal procedures were performed according to the guidelines of animal research in the European Community and with prior approval by the Ethics Committee of the Health Research of the IIS-Fundacion Jiménez Díaz. For in vivo studies, mice received a daily intraperitoneal injection of the VDRA Paricalcitol starting 48 hours prior to induction of kidney damage.
# Folic acid nephropathy is a classical model of kidney tubulointerstitial injury and inflammation that has been reported in humans. Mice received a single intraperitoneal injection of folic acid (Sigma) 300 mg/kg in 0.3 mol/l sodium bicarbonate or vehicle, and were sacrificed 48 hours later. Two groups were studied; untreated or paricalcitol treated (25 µg/kg/day, i.p., Abbot), n=7-8 per group starting 48 hours before FA injection. The dose of paricalcitol was chosen based on dose-finding preliminary experiments.
# [2] = system: RelB or p52/NF-κB2; assay: p52 and RelB DNA binding activity in PBMCs from ESRD patients on hemodialysis; type: in vivo, human; settings: PBMCs from paricalcitol-treated ESRD patients; RelB or p52 DNA binding activities
# Procedure: Intracellular protein and mRNA levels were measured in PBMCs from ESRD patients on hemodialysis. Inclusion criteria were as follows: age >45 years; male sex; informed consent; and absence of active inflammatory, infectious, or malignant diseases at the initiation or during the study. This study was approved by the IIS-Fundación Jiménez Diaz Ethics Committee. Patients were enrolled after providing written informed consent. PBMCs were separated from whole blood samples (30 ml into EDTA tubes) by a density gradient centrifugation method using Ficoll density gradient centrifugation. In total, 50x10^6 of PBMCs were obtained from 30 ml of whole blood and 6x10^6 PBMCs were used to isolate protein, RNA and nuclear/cytosolic protein levels using the NE-PER Reagent (Pierce) following the manufacturer's instructions.
# Nuclear and cytoplasmic fractions were separated from renal tissues using the NE-PER Reagent (Pierce) following the manufacturer's instructions. In renal nuclear extracts, NF-κB2 and RelB DNA binding activity was measured by its binding to an oligonucleotide containing the NF-κB consensus site using a TransAM NF-κB Family kit (Active Motif) with an antibody that only recognizes active NF-κB2 p52 and RelB.
# [3] = system: TRAF3; assay: Renal TRAF3 (western blot), unilateral ureteral obstruction in mice; type: in vivo; settings: paricalcitol 750 ng/kg/day i.p., studied after 5 days
# Procedure: as §1
# (§2) At the time of sacrifice, animals were anesthetized with 5 mg/kg xylazine (Rompun, Bayer AG) and 35 mg/kg ketamine (Ketolar, Pfizer) and the kidneys perfused in situ with cold saline before removal. Then, kidney portions were fixed in formalin buffer for immunohistochemistry studies or immediately frozen in liquid nitrogen for gene and protein studies.
# Unilateral ureteral obstruction (UUO) was established in male C57BL/6 mice, under isoflurane-induced anesthesia. […]
# (§3) For western blot, cell (25 µg/lane) and kidney (100-150 µg/lane) protein extracts were separated on 6%-12% polyacrylamide-SDS gels under reducing conditions. […] Autoradiographs were scanned using the Gel Doc™ EZ imager and analyzed with the Image Lab 3.0 software (BioRad).
# [4] = system: NF-κB1; assay: Canonical NF-κB1 activation in kidneys of TWEAK-injected mice; type: in vivo; settings: kidneys from TWEAK-injected mice; paricalcitol 750 ng/kg/day
# Procedure: as §1, §2
# TWEAK administration: C57BL/6 female mice (9-12 weeks, weight 20 g, 7-8 animals per group), received a single intraperitoneal injection of 0.5 µg TWEAK dissolved in saline and were sacrificed 24 hours later, as previously described (Sanz et al. 2008). Controls were injected with the saline vehicle (n=8-10 mice per group). TWEAK endotoxin level were <0.1 ng/mg, confirmed by MALDI-TOF. […]
# as §3
structure (smiles),measurement,setting,value
C[C@H](/C=C/[C@H](C)C(C)(C)O)[C@H]1CC[C@H]2/C(=C/C=C3C[C@@H](O)C[C@H](O)C3)CCC[C@]12C [paricalcitol],renal function assessed by serum BUN levels,[1],restored changes in renal function
same,NF-κB2 pathway activation,[2],inhibited
same,renal TRAF3 protein levels,[3],restored renal TRAF3 protein levels to values of control mice
same,IκBα phosphorylation and nuclear p65 NF-κB levels,[4],not modulated; also recorded: not modified
